Results published in US4402962A, “Analgesic mixture of nalbuphine and 4,5-bis(4-methoxyphenyl)-2-(trifluoromethylsulfonyl)-1H-imidazole” (E. I. Du Pont de Nemours and Company, priority 1982, dated 1983).

Test: phenyl-p-benzoquinone induced writhing test in mice (mouse antiphenylquinone writhing test), oral
Format: in vivo, mouse (male CF1)
Conditions: for % MICE BLOCKED: oral
From the text: The phenyl-p-benzoquinone induced writhing test in mice [H. Blumberg et al., Proc. Soc. […] The method simply consists of reading the % ED50 DOSE for each dose ratio on the best fit regression analysis curve from the mouse isobologram, multiplying each component by its effective species dose, and then forming the ratio of the amount of nalbuphine to 4,5-bis(4-methoxyphenyl)-2-(trifluoromethylsulfonyl)-1 H-imidazole. […] [E. W. Pelikan, The Pharmacologist, 1, 73 (1959). ]
Male CF1 mice obtained from Charles River Breeding Laboratories, fasted for 16-22 hours and weighing 18-22 g at the time of testing are used throughout. All mice are dosed sequentially by the oral route with suspensions of 4,5-bis(4-methoxyphenyl)-2-(trifluoromethylsulfonyl)-1H-imidazole and/or of nalbuphine hydrochloride. A dosing volume of 10 ml/kg is used for each sequential solution or suspension. […] All doses are coded and the test is performed under a code not known to the observer.
A stock suspension of 4,5-bis(4-methoxyphenyl)-2-trifluoromethylsulfonyl)-1H-imidazole is prepared by mixing 8.0 mg 4,5-bis(4-methoxyphenyl)-2-(trifluoromethylsulfonyl)-1H-imidazole with 80 ml of an aqueous vehicle containing 2% by volume of Tween 80®, a pharmacological dispersant manufactured by Fisher Scientific Company and containing 100% polysorbate 80, and 1% by weight of Methocel® MC powder, a suspending agent manufactured by DOW Chemical Company and containing 100% methylcellulose, in distilled water. The mixture is sonicated at 150 watts for 1-2 minutes with an ultrasound system, then shaken for two hours at 280 oscillations/minute with 15-20 gm of glass beads. The resultant suspension contains 0.1 mg/ml of 4,5-bis(4-methoxyphenyl)-2-(trifluoromethylsulfonyl)-1H-imidazole; all dosing suspensions are prepared by dilution of the stock suspension with the Methocel®/Tween 80® vehicle; the vehicle control is Methocel®/Tween 80®. All suspensions are prepared fresh daily.
Stock solutions of nalbuphine HCl are prepared by dissolving dry nalbuphine hydrochloride powder with distilled water. All dosing solutions are prepared by dilution of the stock solution with distilled water; the vehicle control is distilled water.
As indicated above, the standard procedure based upon the prevention of phenyl-p-benzoquinone induced writhing in mice is utilized to detect and quantify the analgetic activity of compositions containing nalbuphine and 4,5-bis(4-methoxyphenyl)-2-(trifluoromethylsulfonyl)-1H-imidazole.
Mice, intubated with various doses of nalbuphine hydrochloride, 4,5-bis(4-methoxyphenyl)-2-(trifluoromethylsulfonyl)-1H-imidazole, combined doses of nalbuphine hydrochloride and 4,5-bis(4-methoxyphenyl)-2-(trifluoromethylsulfonyl)-1H-imidazole, or vehicle, are injected intraperitoneally with a challenge dose of phenyl-p-benzoquinone 5 minutes prior to the designated observation period. The phenyl-p-benzoquinone is prepared as an 0.1 mg/ml solution in 5% by volume of ethanol in water; the writhing dose is 1.25 mg/kg injected in a volume of 0.25 ml/20 g. For scoring purposes a "writhe" is indicated by whole body stretching or contraction of the abdomen; mice are observed 10 minutes for the presence or absence of writhing beginning 5 minutes after receiving the phenyl-p-benzoquinone dose. Each mouse is used only once, then discarded. […] This dosage as described herein is referred to as the ED50. All ED50 values and their 95% confidence limits are determined numerically by the computer-assisted methods of Finney. [D. J. Finney, "Probit Analysis," Third Edition, Cambridge University Press, Cambridge, England, 1971].

COc1ccc(-c2nc(S(=O)(=O)C(F)(F)F)[nH]c2-c2ccc(OC)cc2)cc1 [CII, 4,5-bis(4-methoxyphenyl)-2-(trifluoromethylsulfonyl)-1H-imidazole]
% MICE BLOCKED (40 min, CII 0.063 mg/kg): 10.0%
% MICE BLOCKED (40 min, CII 0.125 mg/kg): 46.7%
% MICE BLOCKED (40 min, CII 0.250 mg/kg): 73.3%
% MICE BLOCKED (40 min, CII 0.500 mg/kg): 93.3%
ED50 at 40 min, CII (40 min post oral dosing, CII part of the ED50 dose, N = 30 mice/dose): 0.161 mg/kg
% MICE BLOCKED (80 min, CII 0.03 mg/kg): 13.3%
% MICE BLOCKED (80 min, CII 0.06 mg/kg): 26.7%
% MICE BLOCKED (80 min, CII 0.12 mg/kg): 56.7%
% MICE BLOCKED (80 min, CII 0.24 mg/kg): 63.3%
ED50 at 80 min, CII (80 min post oral dosing, CII part of the ED50 dose, N = 30 mice/dose): 0.135 mg/kg

Oc1ccc2c3c1O[C@H]1[C@@H](O)CC[C@@]4(O)[C@@H](C2)N(CC2CCC2)CC[C@]314 [Nalbuphine, (-)-17-(cyclobutylmethyl)-4,5α-epoxymorphinan-3,6α,14-triol]
% MICE BLOCKED (40 min, nalbuphine HCl 5.85 mg/kg): 16.7%
% MICE BLOCKED (40 min, nalbuphine HCl 11.7 mg/kg): 30.0%
% MICE BLOCKED (40 min, nalbuphine HCl 23.4 mg/kg): 43.3%
% MICE BLOCKED (40 min, nalbuphine HCl 46.8 mg/kg): 70.0%
% MICE BLOCKED (40 min, nalbuphine HCl 93.6 mg/kg): 83.3%
ED50 at 40 min, nalbuphine HCl (40 min post oral dosing, nalbuphine HCl part of the ED50 dose, N = 30 mice/dose): 28.9 mg/kg
% MICE BLOCKED (80 min, nalbuphine HCl 24.5 mg/kg): 6.7%
% MICE BLOCKED (80 min, nalbuphine HCl 49 mg/kg): 26.7%
% MICE BLOCKED (80 min, nalbuphine HCl 98 mg/kg): 40.0%
% MICE BLOCKED (80 min, nalbuphine HCl 196 mg/kg): 56.7%
% MICE BLOCKED (80 min, nalbuphine HCl 392 mg/kg): 83.3%
ED50 at 80 min, nalbuphine HCl (80 min post oral dosing, nalbuphine HCl part of the ED50 dose, N = 30 mice/dose): 141 mg/kg
